Values of other authors in patent US20060068010A1, “Method for improving the bioavailability of orally delivered therapeutics” (priority 2004, published 2006).
Where a name gives a salt, the structure may show the parent alone. Read-outs that look alike come from different tables or passages of the source.

Legend:
[1] = normalized to glycine = 0, most hydrophobic = 100
[2] = humans

Structure (SMILES) | Hydrophobicity Index ([1]; At pH 2) | Hydrophobicity Index ([1]; At pH 7) | other results
CN(CCOc1ccc(CC2SC(=O)NC2=O)cc1)c1ccccn1.O=C(O)/C=C\C(=O)O (racemic) [Rosiglitazone maleate, (±)-5-[[4-[2-(methyl-2-pyridinylamino)ethoxy]phenyl]methyl]-2,4-thiazolidinedione, (Z)-2-butenedioate (1:1)] | – | – | solubility dependence on pH (physiological pH range): decreases with increased pH
Cc1nccn1CC1CCc2c(c3ccccc3n2C)C1=O (racemic) [ondansetron, (+/−) 1,2,3,9-tetrahydro-9-methyl-3-[2-methyl-1H-imidazol-1-yl]-4H-carbazol-4-one, monohydrochloride, dehydrate] | – | – | solubility classification (base form, at pH greater than 5.0): low solubility
C[C@H](N)C(=O)O [Ala, Alanine] | 47 | 41 | –
NC(=O)C[C@H](N)C(=O)O [Asn, asparagine] | −41 | −28 | –
CC(C)NCC(O)COc1ccc(CC(N)=O)cc1 (stereo not drawn) [Atenolol, benzeneacetamide, 4-[2′-hydroxy-3′-[(1-methylethyl)amino]propoxy]-] | – | – | fraction of an oral dose absorbed from the gastrointestinal tract [2]: about 50%
N[C@@H](CS)C(=O)O [Cys, cysteine] | 52 | 49 | –
N[C@@H](Cc1c[nH]cn1)C(=O)O [His, histidine] | −42 | 8 | –
CC[C@H](C)[C@H](N)C(=O)O [Ile, isoleucine] | 100 | 99 | –
NCCCC[C@H](N)C(=O)O [Lys, lysine] | −37 | −23 | –
CSCC[C@H](N)C(=O)O [Met, methionine] | 74 | 74 | –
N[C@@H](Cc1ccccc1)C(=O)O [Phe, phenylalanine] | 92 | 100 | –
N[C@@H](Cc1c[nH]c2ccccc12)C(=O)O [Trp, tryptophan] | 84 | 97 | –
N[C@@H](Cc1ccc(O)cc1)C(=O)O [Tyr, tyrosine] | 49 | 63 | –
CC(C)[C@H](N)C(=O)O [Val, valine] | 79 | 76 | –
O=C(c1ccc(OCCN2CCCCC2)cc1)c1c(-c2ccc(O)cc2)sc2cc(O)ccc12 [raloxifene hydrochloride, 6-hydroxy-2-(4-hydroxyphenyl)-3-[4-(2-piperidinoethoxy)benzoyl]benzo[p]-thiophene] | – | – | solubility (hydrochloride-salt form): approximately 0.3 mg/mL; solubility classification (hydrochloride-salt form): very slightly soluble
